According to ChEMBL document CHEMBL4715697, “Synthesis and biological activity of benzamide DNA minor groove binders” (2016):

How the values were obtained:
Type in all cases: functional
Conditions in all cases: read-out: Activity
[1] = system: HL-60(TB); experiment: Growth inhibition of human HL-60(TB) cells assessed as cell growth at 10 uM incubated for 48 hrs by sulforhodamine B assay relative to control
[2] = system: RPMI-8226; experiment: Growth inhibition of human RPMI-8226 cells assessed as cell growth at 10 uM incubated for 48 hrs by sulforhodamine B assay relative to control
[3] = system: HOP-62; experiment: Growth inhibition of human HOP-62 cells assessed as cell growth at 10 uM incubated for 48 hrs by sulforhodamine B assay relative to control
[4] = system: NCI-H226; experiment: Growth inhibition of human NCI-H226 cells assessed as cell growth at 10 uM incubated for 48 hrs by sulforhodamine B assay relative to control
[5] = system: NCI-H322M; experiment: Growth inhibition of human NCI-H322M cells assessed as cell growth at 10 uM incubated for 48 hrs by sulforhodamine B assay relative to control
[6] = system: NCI-H522; experiment: Growth inhibition of human NCI-H522 cells assessed as cell growth at 10 uM incubated for 48 hrs by sulforhodamine B assay relative to control
[7] = system: HCC 2998; experiment: Growth inhibition of human HCC 2998 cells assessed as cell growth at 10 uM incubated for 48 hrs by sulforhodamine B assay relative to control
[8] = system: HCT-116; experiment: Growth inhibition of human HCT-116 cells assessed as cell growth at 10 uM incubated for 48 hrs by sulforhodamine B assay relative to control
[9] = system: HCT-15; experiment: Growth inhibition of human HCT-15 cells assessed as cell growth at 10 uM incubated for 48 hrs by sulforhodamine B assay relative to control
[10] = system: HT-29; experiment: Growth inhibition of human HT-29 cells assessed as cell growth at 10 uM incubated for 48 hrs by sulforhodamine B assay relative to control
[11] = system: KM12; experiment: Growth inhibition of human KM12 cells assessed as cell growth at 10 uM incubated for 48 hrs by sulforhodamine B assay relative to control
[12] = system: SF-268; experiment: Growth inhibition of human SF-268 cells assessed as cell growth at 10 uM incubated for 48 hrs by sulforhodamine B assay relative to control
[13] = system: SF-539; experiment: Growth inhibition of human SF-539 cells assessed as cell growth at 10 uM incubated for 48 hrs by sulforhodamine B assay relative to control
[14] = system: SNB-19; experiment: Growth inhibition of human SNB-19 cells assessed as cell growth at 10 uM incubated for 48 hrs by sulforhodamine B assay relative to control
[15] = system: SNB-75; experiment: Growth inhibition of human SNB-75 cells assessed as cell growth at 10 uM incubated for 48 hrs by sulforhodamine B assay relative to control
[16] = system: U-251; experiment: Growth inhibition of human U-251 cells assessed as cell growth at 10 uM incubated for 48 hrs by sulforhodamine B assay relative to control
[17] = system: LOX IMVI; experiment: Growth inhibition of human LOX IMVI cells assessed as cell growth at 10 uM incubated for 48 hrs by sulforhodamine B assay relative to control
[18] = system: Malme-3M; experiment: Growth inhibition of human Malme-3M cells assessed as cell growth at 10 uM incubated for 48 hrs by sulforhodamine B assay relative to control
[19] = system: M14; experiment: Growth inhibition of human M14 cells assessed as cell growth at 10 uM incubated for 48 hrs by sulforhodamine B assay relative to control
[20] = system: MDA-MB-435; experiment: Growth inhibition of human MDA-MB-435 cells assessed as cell growth at 10 uM incubated for 48 hrs by sulforhodamine B assay relative to control
[21] = system: SK-MEL-2; experiment: Growth inhibition of human SK-MEL-2 cells assessed as cell growth at 10 uM incubated for 48 hrs by sulforhodamine B assay relative to control
[22] = system: SK-MEL-28; experiment: Growth inhibition of human SK-MEL-28 cells assessed as cell growth at 10 uM incubated for 48 hrs by sulforhodamine B assay relative to control
[23] = system: SK-MEL-5; experiment: Growth inhibition of human SK-MEL-5 cells assessed as cell growth at 10 uM incubated for 48 hrs by sulforhodamine B assay relative to control
[24] = system: UACC-257; experiment: Growth inhibition of human UACC-257 cells assessed as cell growth at 10 uM incubated for 48 hrs by sulforhodamine B assay relative to control
[25] = system: UACC-62; experiment: Growth inhibition of human UACC-62 cells assessed as cell growth at 10 uM incubated for 48 hrs by sulforhodamine B assay relative to control
[26] = system: OVCAR-3; experiment: Growth inhibition of human OVCAR-3 cells assessed as cell growth at 10 uM incubated for 48 hrs by sulforhodamine B assay relative to control
[27] = system: OVCAR-5; experiment: Growth inhibition of human OVCAR-5 cells assessed as cell growth at 10 uM incubated for 48 hrs by sulforhodamine B assay relative to control
[28] = system: OVCAR-8; experiment: Growth inhibition of human OVCAR-8 cells assessed as cell growth at 10 uM incubated for 48 hrs by sulforhodamine B assay relative to control
[29] = system: 786-0; experiment: Growth inhibition of human 786-0 cells assessed as cell growth at 10 uM incubated for 48 hrs by sulforhodamine B assay relative to control
[30] = system: ACHN; experiment: Growth inhibition of human ACHN cells assessed as cell growth at 10 uM incubated for 48 hrs by sulforhodamine B assay relative to control
[31] = system: CAKI-1; experiment: Growth inhibition of human CAKI-1 cells assessed as cell growth at 10 uM incubated for 48 hrs by sulforhodamine B assay relative to control
[32] = system: SN12C; experiment: Growth inhibition of human SN12C cells assessed as cell growth at 10 uM incubated for 48 hrs by sulforhodamine B assay relative to control
[33] = system: TK-10; experiment: Growth inhibition of human TK-10 cells assessed as cell growth at 10 uM incubated for 48 hrs by sulforhodamine B assay relative to control
[34] = system: UO-31; experiment: Growth inhibition of human UO-31 cells assessed as cell growth at 10 uM incubated for 48 hrs by sulforhodamine B assay relative to control
[35] = system: PC-3; experiment: Growth inhibition of human PC-3 cells assessed as cell growth at 10 uM incubated for 48 hrs by sulforhodamine B assay relative to control
[36] = system: MCF7; experiment: Growth inhibition of human MCF7 cells assessed as cell growth at 10 uM incubated for 48 hrs by sulforhodamine B assay relative to control
[37] = system: BT-549; experiment: Growth inhibition of human BT-549 cells assessed as cell growth at 10 uM incubated for 48 hrs by sulforhodamine B assay relative to control
[38] = system: T47D; experiment: Growth inhibition of human T47D cells assessed as cell growth at 10 uM incubated for 48 hrs by sulforhodamine B assay relative to control
[39] = system: MDA-MB-468; experiment: Growth inhibition of human MDA-MB-468 cells assessed as cell growth at 10 uM incubated for 48 hrs by sulforhodamine B assay relative to control

Compound	growth at 10 µM [1] [%]	growth at 10 µM [2] [%]	growth at 10 µM [3] [%]	growth at 10 µM [4] [%]	growth at 10 µM [5] [%]	growth at 10 µM [6] [%]	growth at 10 µM [7] [%]	growth at 10 µM [8] [%]	growth at 10 µM [9] [%]	growth at 10 µM [10] [%]	growth at 10 µM [11] [%]	growth at 10 µM [12] [%]	growth at 10 µM [13] [%]	growth at 10 µM [14] [%]	growth at 10 µM [15] [%]	growth at 10 µM [16] [%]	growth at 10 µM [17] [%]	growth at 10 µM [18] [%]	growth at 10 µM [19] [%]	growth at 10 µM [20] [%]	other results
CC(=O)Nc1cc(CO)cc(NC(=O)c2ccc(C(=O)NCCCN(C)C)cc2)c1	104	98.2	110	92	121	88.4	102	104	106	100	118	114	110	101	87.8	107	97.4	100	98.6	103	growth at 10 µM [21]: 92.9%; growth at 10 µM [22]: 108%; growth at 10 µM [23]: 96.4%; growth at 10 µM [24]: 107%; growth at 10 µM [25]: 95.9%; growth at 10 µM [26]: 129%; growth at 10 µM [27]: 107%; growth at 10 µM [28]: 108%; growth at 10 µM [29]: 102%; growth at 10 µM [30]: 108%; growth at 10 µM [31]: 109%; growth at 10 µM [32]: 95.6%; growth at 10 µM [33]: 99%; growth at 10 µM [34]: 98.1%; growth at 10 µM [35]: 97.9%; growth at 10 µM [36]: 101%; growth at 10 µM [37]: 98.6%; growth at 10 µM [38]: 92.9%; growth at 10 µM [39]: 91.2%
CC(=O)Nc1cccc(NC(=O)c2ccc(C(=O)Nc3cc(CCl)cc(NC(C)=O)c3)cc2)c1	93.4	98.8	112	101	125	90.8	103	116	109	111	118	115	109	104	113	113	110	99.6	104	108	growth at 10 µM [21]: 100%; growth at 10 µM [22]: 115%; growth at 10 µM [23]: 102%; growth at 10 µM [24]: 106%; growth at 10 µM [25]: 98.3%; growth at 10 µM [26]: 128%; growth at 10 µM [27]: 112%; growth at 10 µM [28]: 108%; growth at 10 µM [29]: 112%; growth at 10 µM [30]: 109%; growth at 10 µM [31]: 115%; growth at 10 µM [32]: 102%; growth at 10 µM [33]: 113%; growth at 10 µM [34]: 104%; growth at 10 µM [35]: 95.2%; growth at 10 µM [36]: 102%; growth at 10 µM [37]: 108%; growth at 10 µM [38]: 95.8%; growth at 10 µM [39]: 82.2%
CC(=O)Nc1ccc(C(=O)Nc2cc(CO)cc(NC(C)=O)c2)cc1	101	96.6	106	99.9	109	89.5	99.4	106	106	106	115	108	107	100	96.7	110	105	115	98.3	108	growth at 10 µM [21]: 96.3%; growth at 10 µM [22]: 116%; growth at 10 µM [23]: 98.8%; growth at 10 µM [24]: 107%; growth at 10 µM [25]: 101%; growth at 10 µM [26]: 123%; growth at 10 µM [27]: 105%; growth at 10 µM [28]: 109%; growth at 10 µM [29]: 99.4%; growth at 10 µM [30]: 108%; growth at 10 µM [32]: 104%; growth at 10 µM [33]: 101%; growth at 10 µM [34]: 101%; growth at 10 µM [35]: 104%; growth at 10 µM [36]: 95.3%; growth at 10 µM [37]: 108%; growth at 10 µM [38]: 94.7%; growth at 10 µM [39]: 97%
